# Laboratory results taken from publication PMC3265452 (PLoS Neglected Tropical Diseases, 2012).
# Structures can show the parent of a compound that is named as a salt. Where two headings read alike, the source gives them in different places.
# Target: AaDOP2 (Aedes aegypti, UniProt H6D5H2)
# Test: AaDOP2 antagonist screen of the LOPAC1280 library (HEK-CRELuc-Aadop2 cells, luminescence)
# Format: cell-based
# [1] = 10 µM compound, 300 nM dopamine, 2 hr, hit = compound effect <20
# Sequence of AaDOP2 (H6D5H2 1-476): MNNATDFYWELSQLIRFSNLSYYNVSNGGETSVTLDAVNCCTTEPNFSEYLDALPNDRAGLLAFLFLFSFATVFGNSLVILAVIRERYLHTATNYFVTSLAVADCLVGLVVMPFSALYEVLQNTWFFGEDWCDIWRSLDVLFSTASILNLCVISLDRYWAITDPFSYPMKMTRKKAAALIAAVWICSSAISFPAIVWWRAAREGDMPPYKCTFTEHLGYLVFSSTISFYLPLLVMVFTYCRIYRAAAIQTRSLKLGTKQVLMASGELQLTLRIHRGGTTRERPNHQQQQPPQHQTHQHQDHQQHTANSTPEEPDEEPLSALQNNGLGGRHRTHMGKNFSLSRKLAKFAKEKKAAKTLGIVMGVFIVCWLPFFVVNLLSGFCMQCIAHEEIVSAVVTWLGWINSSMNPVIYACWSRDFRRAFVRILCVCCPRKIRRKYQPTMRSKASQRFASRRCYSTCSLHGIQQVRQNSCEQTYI
Structure (SMILES),"Compound effect (percent receptor signaling in presence of test compound, relative lux units relative to the SCH23390 control)",other results
"CC(C)C(=O)c1c(C(C)C)nn2ccccc12 [Compound 628, Ibudilast]",136,–
"Cl.O=C(O)Cc1c[nH]cn1 [Compound 629, Imidazole-4-acetic acid hydrochloride]",122,–
"O=C1Nc2ccccc2/C1=C1/Nc2ccccc2/C1=N\O [Compound 630, Indirubin-3'-oxime]",–,"Compound effect (percent receptor signaling in presence of test compound, relative lux units relative to the SCH23390 control) [1]: 23%"
"O=C1C(SCCO)=C(SCCO)C(=O)c2ccccc21 [Compound 631, NSC 95397]",17,% of the SCH23390 effect (percent inhibition of receptor response relative to the SCH23390 control): 83%
"O=C1CCC(c2ccc(-n3ccnc3)cc2)=NN1 [Compound 632, Imazodan]",92,–
"NC(=O)CI [Compound 633, Iodoacetamide]",84,–
"O=S(=O)(c1cccc2cnccc12)N1CCNCC1 [Compound 634, HA-100]",71,–
"CC(C)[N+]1(C)[C@@H]2CC[C@H]1C[C@@H](OC(=O)C(CO)c1ccccc1)C2 (some centres unmarked) [Compound 635, Ipratropium bromide]",118,–
"CC(=O)[C@]1(O)Cc2c(O)c3c(c(O)c2[C@@H](O[C@H]2C[C@H](N)[C@H](O)[C@H](C)O2)C1)C(=O)c1ccccc1C3=O [Compound 636, Idarubicin]",17,inhibition at 10 µM (read-out: % of the SCH23390 effect (percent inhibition of receptor response relative to the SCH23390 control)): 83%
"COc1ccc2[nH]c(I)c(CCNC(C)=O)c2c1 [Compound 637, 2-Iodomelatonin]",113,–
"CN([C@@H](Cc1ccc(OS(=O)(=O)c2cccc3cnccc23)cc1)C(=O)N1CCN(c2ccccc2)CC1)S(=O)(=O)c1cccc2cnccc12 [Compound 638, KN-62]",104,–
"O=S(=O)(c1cccc2c(I)cccc12)N1CCCNCC1 [Compound 641, ML-7]",85,–
"CC(C(O)c1ccc(O)cc1)N1CCC(Cc2ccccc2)CC1.CC(C(O)c1ccc(O)cc1)N1CCC(Cc2ccccc2)CC1.O=C(O)C(O)C(O)C(=O)O (centres unmarked) [Compound 643, Ifenprodil tartrate]",–,"Compound effect (percent receptor signaling in presence of test compound, relative lux units relative to the SCH23390 control) [1]: 64%"
"CCC(NC(C)C)C(O)c1ccc(O)c(O)c1.CS(=O)(=O)O (centres unmarked) [Compound 644, Isotharine mesylate]",–,"Compound effect (percent receptor signaling in presence of test compound, relative lux units relative to the SCH23390 control) [1]: 115%"
"CCCC(=O)NCCc1c2n(c3ccc(OC)cc13)Cc1ccccc1-2 [Compound 647, IIK7]",96,–
"CC(C)Cn1c(=O)n(C)c(=O)c2[nH]cnc21 [Compound 649, 3-Isobutyl-1-methylxanthine]",129,–
"c1ccc2c(c1)OCC(C1=NCCN1)O2 (centres unmarked) [Compound 650, Idazoxan hydrochloride]",103,–
"CC1CN(S(=O)(=O)c2cccc3cnccc23)CCN1.Cl.Cl (centres unmarked) [Compound 651, 1-(5-Isoquinolinylsulfonyl)-3-methylpiperazine dihydrochloride]",100,–
"CC1CNCCN1S(=O)(=O)c1cccc2cnccc12.Cl.Cl (centres unmarked) [Compound 653, 1-(5-Isoquinolinylsulfonyl)-2-methylpiperazine dihydrochloride]",29,–
"COc1ccc2c(c1)c(CC(=O)O)c(C)n2C(=O)c1ccc(Cl)cc1 [Compound 654, Indomethacin]",100,–
"Nc1nc2[nH]c(=O)cnc2c(=O)[nH]1 [Compound 656, Isoxanthopterin]",106,–
"CC(C)NNC(=O)c1ccncc1.O=P(O)(O)O [Compound 657, Iproniazid phosphate]",–,"Compound effect (percent receptor signaling in presence of test compound, relative lux units relative to the SCH23390 control) [1]: 97%"
"CC(=N)NCCCC[C@H](N)C(=O)O.Cl [Compound 659, L-N6-(1-Iminoethyl)lysine hydrochloride]",101,–
"N[C@@H](Cc1ccc(O)c(I)c1)C(=O)O [Compound 660, 3-Iodo-L-tyrosine]",100,–
"CC(=N)NCCC[C@H](N)C(=O)O.Cl [Compound 661, L-N5-(1-Iminoethyl)ornithine hydrochloride]",102,–

Structure (SMILES),"Compound effect (percent receptor signaling in presence of test compound, relative lux units relative to the SCH23390 control)",other results
"CC[C@H](C)[C@H]1O[C@]2(CC[C@@H]1C)C[C@@H]1C[C@@H](C/C=C(\C)[C@@H](O[C@H]3C[C@H](OC)[C@@H](O[C@H]4C[C@H](OC)[C@@H](O)[C@H](C)O4)[C@H](C)O3)[C@@H](C)/C=C/C=C3\CO[C@@H]4[C@H](O)C(C)=C[C@@H](C(=O)O1)[C@]34O)O2 [Compound 662, Ivermectin]",101,–
"CCn1ccnc1CC1COc2ccccc2O1 (centres unmarked) [Compound 663, Imiloxan hydrochloride]",96,–
"Cc1cc(C)c(NC(=O)C[C@H](CC(=O)O)c2cccc3ccccc23)c(C(=O)N2CCC3(CCCC3)CC2)c1 [Compound 664, CR 2945]",101,–
"NC(N)=NCc1cccc(I)c1.NC(N)=NCc1cccc(I)c1.O=S(=O)(O)O [Compound 665, m-Iodobenzylguanidine hemisulfate]",–,"Compound effect (percent receptor signaling in presence of test compound, relative lux units relative to the SCH23390 control) [1]: 96%"
"CC(C)Cc1ccc([C@H](C)C(=O)O)cc1 [Compound 666, S(+)-Ibuprofen]",102,–
"Cl.Clc1cc(I)cc(Cl)c1NC1=NCCN1 [Compound 667, p-Iodoclonidine hydrochloride]",–,"Compound effect (percent receptor signaling in presence of test compound, relative lux units relative to the SCH23390 control) [1]: 83%"
"C[C@@]1(C2CCCC2)Cc2cc(OCC(=O)O)c(Cl)c(Cl)c2C1=O [Compound 668, R(+)-IAA-94]",100,–
"CN[C@@H]1C[C@@H](c2ccc(Cl)c(Cl)c2)c2ccccc21 [Compound 669, Indatraline hydrochloride]",54,–
"CC(C)NC(C)Cc1ccc(I)cc1 (centres unmarked) [Compound 670, Iofetamine hydrochloride]",90,–
"CN(C(=O)Cc1ccc(Cl)c(Cl)c1)C(CN1CCCC1)c1cccc(OCC(=O)O)c1.Cl (centres unmarked) [Compound 671, ICI 204,448 hydrochloride]",97,–
"Cc1ccc(OCC(O)C(C)NC(C)C)c2c1CCC2.Cl (centres unmarked) [Compound 672, ICI 118,551 hydrochloride]",–,"Compound effect (percent receptor signaling in presence of test compound, relative lux units relative to the SCH23390 control) [1]: 92%"
"N=C(N)SCCc1cnc[nH]1 [Compound 673, Imetit dihydrobromide]",91,–
"Oc1cccc2c(O)nccc12 [Compound 674, 1,5-Isoquinolinediol]",92,–
"CCN1CCC[C@H]1CNC(=O)c1c(OC)ccc(I)c1O [Compound 675, S(-)-IBZM]",–,"Compound effect (percent receptor signaling in presence of test compound, relative lux units relative to the SCH23390 control) [1]: 85%"
"CNC(=O)[C@H]1O[C@@H](n2cnc3c(NCc4cccc(I)c4)ncnc32)[C@H](O)[C@@H]1O [Compound 676, IB-MECA]",105,–
"COc1ccc2c(c1)c(CC(=O)N1CCOCC1)c(C)n2C(=O)c1ccc(Cl)cc1 [Compound 677, Indomethacin morpholinylamide]",89,–
"Cl.Fc1ccc(C(OCCCc2c[nH]cn2)c2ccc(F)cc2)cc1 [Compound 678, 3-(1H-Imidazol-4-yl)propyl di(p-fluorophenyl)methyl ether hydrochloride]",52,–
"O=C(O)C1CCNCC1 [Compound 679, Isonipecotic acid]",94,–
"CCCn1c(C)c(C(=O)c2cccc3ccccc23)c2ccccc21 [Compound 680, JWH-015]",73,–
"Cc1ccc2c(c1)C(N1CCN(C)CC1)=Nc1cccnc1N2 [Compound 681, JL-18]",2,% of the SCH23390 effect (percent inhibition of receptor response relative to the SCH23390 control): 98%
"C=C(C)[C@H]1CN[C@H](C(=O)O)[C@H]1CC(=O)O [Compound 682, Kainic acid]",98,–
"CC(=O)N1CCN(c2ccc(OCC3COC(Cn4ccnc4)(c4ccc(Cl)cc4Cl)O3)cc2)CC1 (centres unmarked) [Compound 683, Ketoconazole]",85,–
"NC(CO)(CO)CO.O=C(c1ccccc1)c1ccc2n1CCC2C(=O)O (centres unmarked) [Compound 684, Ketorolac tris salt]",–,"Compound effect (percent receptor signaling in presence of test compound, relative lux units relative to the SCH23390 control) [1]: 98%"
"CC(C(=O)O)c1cccc(C(=O)c2ccccc2)c1 (centres unmarked) [Compound 685, Ketoprofen]",101,–
"CCCC(=O)NCCc1c2n(c3ccc(OC)cc13)CCCc1ccccc1-2 [Compound 686, K 185]",80,–
